In PubChem BioAssay (NCI) one finds TGI data, which are given here for 15 compounds.

Each structure is given as a SMILES string.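 Exposure lasted 48 hours, with cells grown in 96-well plates and compounds tested at five concentrations. At the TGI there is no net growth.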

The first assay relates to SF-539 CNS. Kind of assay: inhibition of tumour cell growth, NCI panel, 48 h.
`OC1(c2cccs2)c2cccc(Cl)c2C(O)(c2cccs2)c2c(Cl)cccc21` (stereo unspecified) registered a TGI of more than 100 µM.

For `C=CCOc1cccc(C2(O)c3ccccc3C3=NCCCN32)c1` (stereo unspecified), the TGI was 37.6 µM.

`C=CCN1C(=O)/C(=C/c2ccc(OC)cc2)N=C1SC/C=C/C` showed a TGI of more than 100 µM.

As to `O=C(ON=C1c2ccccc2C(Br)C(Br)c2ccccc21)c1cc([N+](=O)[O-])cc([N+](=O)[O-])c1` (stereo unspecified), the TGI worked out at 32.8 µM.

In turn, `CC1=NN(C(=O)c2ccccc2O)C(=O)/C1=C/c1ccco1` had a TGI of 10.7 µM.

On to `Cn1c2ccccc2c2c(-c3ccccc3)cc3c(c21)C(=O)C=CC3=O`, for which the TGI was found to be 4.29 µM.

Consider `COc1ccc(Nc2nnc(-c3nsc4ccccc34)s2)cc1`, for which the TGI was more than 100 µM.

`NC(N)=N/N=C/c1c(-c2ccc(Cl)cc2)nc2sccn12` had a TGI of 3.36 µM.

The test system of the next assay is SK-MEL-2 melanoma. In words: inhibition of tumour cell growth, NCI panel, 48 h.
`CCOc1cc(NC(C)=O)ccc1C(=O)NN1C(=O)C(Cl)C1c1ccccc1` (stereo unspecified): the TGI was determined as 29.9 µM.

`Cc1ccc(S(=O)(=O)n2cc(-c3cc(C(F)(F)F)ccn3)c3cc(Br)ccc32)cc1` registered a TGI of 10.8 µM.

`CN(CCCCCl)P(=O)(OCc1ccc([N+](=O)[O-])o1)OC[C@H]1O[C@@H](n2cc(F)c(=O)[nH]c2=O)C[C@@H]1O` (stereo partly specified) had a TGI of 36.1 µM.

Consider `CCOC(=O)P(=O)(O)c1ccc(N(C)Cc2ccccc2)cc1`, for which the TGI is more than 100 µM.

In turn, `[N-]=[N+]=Nc1ccccc1C(=O)N1C(=O)c2ccccc2C(=O)N(C(=O)c2ccccc2N=[N+]=[N-])c2ccccc21` gave a TGI of more than 100 µM.

In turn, `CC(C)Cn1cnc2c(NCC(C)O)nc3ccccc3c21` (stereo unspecified) registered a TGI of more than 100 µM.

For the compound `COC1(OC)c2no[n+]([O-])c2CCC1O` (stereo unspecified), the TGI is more than 100 µM.

In the case of `OC1(c2cccs2)c2cccc(Cl)c2C(O)(c2cccs2)c2c(Cl)cccc21` (stereo unspecified), the TGI was more than 100 µM.

The compound `C=CCOc1cccc(C2(O)c3ccccc3C3=NCCCN32)c1` (stereo unspecified) registered a TGI of 17.5 µM.

With `C=CCN1C(=O)/C(=C/c2ccc(OC)cc2)N=C1SC/C=C/C`, the TGI was more than 100 µM.

For the compound `O=C(ON=C1c2ccccc2C(Br)C(Br)c2ccccc21)c1cc([N+](=O)[O-])cc([N+](=O)[O-])c1` (stereo unspecified), the TGI is more than 71 µM.

Compound `CC1=NN(C(=O)c2ccccc2O)C(=O)/C1=C/c1ccco1` yielded a TGI of more than 100 µM.

Compound `Cn1c2ccccc2c2c(-c3ccccc3)cc3c(c21)C(=O)C=CC3=O` showed a TGI of more than 7.25 µM.

For the compound `COc1ccc(Nc2nnc(-c3nsc4ccccc34)s2)cc1`, the TGI is more than 100 µM.

`NC(N)=N/N=C/c1c(-c2ccc(Cl)cc2)nc2sccn12` registered a TGI of 4.31 µM.

A further assay deals with KM12 colon. Kind of assay: inhibition of tumour cell growth, NCI panel, 48 h.
The compound `CCOc1cc(NC(C)=O)ccc1C(=O)NN1C(=O)C(Cl)C1c1ccccc1` (stereo unspecified) displayed a TGI of 32.9 µM.

Compound `Cc1ccc(S(=O)(=O)n2cc(-c3cc(C(F)(F)F)ccn3)c3cc(Br)ccc32)cc1` showed a TGI of more than 100 µM.

In turn, `CN(CCCCCl)P(=O)(OCc1ccc([N+](=O)[O-])o1)OC[C@H]1O[C@@H](n2cc(F)c(=O)[nH]c2=O)C[C@@H]1O` (stereo partly specified) showed a TGI of 28.7 µM.

`CCOC(=O)P(=O)(O)c1ccc(N(C)Cc2ccccc2)cc1` had a TGI of more than 100 µM.

Take `[N-]=[N+]=Nc1ccccc1C(=O)N1C(=O)c2ccccc2C(=O)N(C(=O)c2ccccc2N=[N+]=[N-])c2ccccc21`: the TGI was more than 100 µM.

With `CC(C)Cn1cnc2c(NCC(C)O)nc3ccccc3c21` (stereo unspecified), the TGI was more than 100 µM.

For `COC1(OC)c2no[n+]([O-])c2CCC1O` (stereo unspecified), the TGI is more than 100 µM.

In the case of `OC1(c2cccs2)c2cccc(Cl)c2C(O)(c2cccs2)c2c(Cl)cccc21` (stereo unspecified), the TGI is more than 100 µM.

In the case of `C=CCOc1cccc(C2(O)c3ccccc3C3=NCCCN32)c1` (stereo unspecified), the TGI turned out to be 24.7 µM.

With `C=CCN1C(=O)/C(=C/c2ccc(OC)cc2)N=C1SC/C=C/C`, the TGI is more than 100 µM.

Regarding `O=C(ON=C1c2ccccc2C(Br)C(Br)c2ccccc21)c1cc([N+](=O)[O-])cc([N+](=O)[O-])c1` (stereo unspecified), the TGI turned out to be 37.4 µM.

On to `CC1=NN(C(=O)c2ccccc2O)C(=O)/C1=C/c1ccco1`, for which the TGI is more than 100 µM.

For the compound `Cn1c2ccccc2c2c(-c3ccccc3)cc3c(c21)C(=O)C=CC3=O`, the TGI is more than 8.77 µM.

As for `COc1ccc(Nc2nnc(-c3nsc4ccccc34)s2)cc1`, the TGI was more than 100 µM.

The next assay concerns 786-0 renal. In words: inhibition of tumour cell growth, NCI panel, 48 h.
`CCOc1cc(NC(C)=O)ccc1C(=O)NN1C(=O)C(Cl)C1c1ccccc1` (stereo unspecified) came in with a TGI of 28.1 µM.

`Cc1ccc(S(=O)(=O)n2cc(-c3cc(C(F)(F)F)ccn3)c3cc(Br)ccc32)cc1` returned a TGI of 36.3 µM.

Take `CN(CCCCCl)P(=O)(OCc1ccc([N+](=O)[O-])o1)OC[C@H]1O[C@@H](n2cc(F)c(=O)[nH]c2=O)C[C@@H]1O` (stereo partly specified): the TGI was more than 80.1 µM.

`CCOC(=O)P(=O)(O)c1ccc(N(C)Cc2ccccc2)cc1` returned a TGI of more than 100 µM.

With `[N-]=[N+]=Nc1ccccc1C(=O)N1C(=O)c2ccccc2C(=O)N(C(=O)c2ccccc2N=[N+]=[N-])c2ccccc21`, the TGI was more than 100 µM.

`CC(C)Cn1cnc2c(NCC(C)O)nc3ccccc3c21` (stereo unspecified) had a TGI of more than 100 µM.

`COC1(OC)c2no[n+]([O-])c2CCC1O` (stereo unspecified): the TGI is more than 100 µM.

In the case of `OC1(c2cccs2)c2cccc(Cl)c2C(O)(c2cccs2)c2c(Cl)cccc21` (stereo unspecified), the TGI is more than 100 µM.

The compound `C=CCOc1cccc(C2(O)c3ccccc3C3=NCCCN32)c1` (stereo unspecified) had a TGI of 25.2 µM.

In the case of `C=CCN1C(=O)/C(=C/c2ccc(OC)cc2)N=C1SC/C=C/C`, the TGI is more than 100 µM.

Compound `O=C(ON=C1c2ccccc2C(Br)C(Br)c2ccccc21)c1cc([N+](=O)[O-])cc([N+](=O)[O-])c1` (stereo unspecified) registered a TGI of 28.7 µM.

On to `CC1=NN(C(=O)c2ccccc2O)C(=O)/C1=C/c1ccco1`, for which the TGI is more than 100 µM.

For `Cn1c2ccccc2c2c(-c3ccccc3)cc3c(c21)C(=O)C=CC3=O`, the TGI is 2.99 µM.

`COc1ccc(Nc2nnc(-c3nsc4ccccc34)s2)cc1` came in with a TGI of 9.77 µM.

`NC(N)=N/N=C/c1c(-c2ccc(Cl)cc2)nc2sccn12` had a TGI of 2.99 µM.

For the next assay, the system named is SN12C renal. Kind of assay: inhibition of tumour cell growth, NCI panel, 48 h.
On to `CCOc1cc(NC(C)=O)ccc1C(=O)NN1C(=O)C(Cl)C1c1ccccc1` (stereo unspecified), for which the TGI worked out at 36.5 µM.

Turning to `Cc1ccc(S(=O)(=O)n2cc(-c3cc(C(F)(F)F)ccn3)c3cc(Br)ccc32)cc1`, the TGI is 88 µM.

`CN(CCCCCl)P(=O)(OCc1ccc([N+](=O)[O-])o1)OC[C@H]1O[C@@H](n2cc(F)c(=O)[nH]c2=O)C[C@@H]1O` (stereo partly specified) came in with a TGI of 9.07 µM.

Compound `CCOC(=O)P(=O)(O)c1ccc(N(C)Cc2ccccc2)cc1` had a TGI of more than 100 µM.

Take `[N-]=[N+]=Nc1ccccc1C(=O)N1C(=O)c2ccccc2C(=O)N(C(=O)c2ccccc2N=[N+]=[N-])c2ccccc21`: the TGI is more than 100 µM.

Consider `CC(C)Cn1cnc2c(NCC(C)O)nc3ccccc3c21` (stereo unspecified), for which the TGI is more than 100 µM.

`COC1(OC)c2no[n+]([O-])c2CCC1O` (stereo unspecified): the TGI is more than 100 µM.

`OC1(c2cccs2)c2cccc(Cl)c2C(O)(c2cccs2)c2c(Cl)cccc21` (stereo unspecified) gave a TGI of more than 100 µM.

Take `C=CCOc1cccc(C2(O)c3ccccc3C3=NCCCN32)c1` (stereo unspecified): the TGI is more than 68.8 µM.

Turning to `C=CCN1C(=O)/C(=C/c2ccc(OC)cc2)N=C1SC/C=C/C`, the TGI is 80.6 µM.

On to `O=C(ON=C1c2ccccc2C(Br)C(Br)c2ccccc21)c1cc([N+](=O)[O-])cc([N+](=O)[O-])c1` (stereo unspecified), for which the TGI stood at 35.8 µM.

In the case of `CC1=NN(C(=O)c2ccccc2O)C(=O)/C1=C/c1ccco1`, the TGI is more than 39.3 µM.

With `Cn1c2ccccc2c2c(-c3ccccc3)cc3c(c21)C(=O)C=CC3=O`, the TGI stood at 5.76 µM.

For the compound `COc1ccc(Nc2nnc(-c3nsc4ccccc34)s2)cc1`, the TGI was more than 100 µM.

On to `NC(N)=N/N=C/c1c(-c2ccc(Cl)cc2)nc2sccn12`, for which the TGI is 3.9 µM.

In a further assay the test system is PC-3 prostate. In words: inhibition of tumour cell growth, NCI panel, 48 h.
For `CCOc1cc(NC(C)=O)ccc1C(=O)NN1C(=O)C(Cl)C1c1ccccc1` (stereo unspecified), the TGI amounted to 27.8 µM.

Turning to `Cc1ccc(S(=O)(=O)n2cc(-c3cc(C(F)(F)F)ccn3)c3cc(Br)ccc32)cc1`, the TGI amounted to 41.7 µM.

As for `CN(CCCCCl)P(=O)(OCc1ccc([N+](=O)[O-])o1)OC[C@H]1O[C@@H](n2cc(F)c(=O)[nH]c2=O)C[C@@H]1O` (stereo partly specified), the TGI was more than 56.1 µM.

The compound `CCOC(=O)P(=O)(O)c1ccc(N(C)Cc2ccccc2)cc1` registered a TGI of more than 100 µM.
